According to patent US5972998A, “Triptolide derivatives useful in the treatment of autoimmune diseases” (priority 1998, dated 1999):
Values after ≈ are worked out from the molar mass of the structure shown. Like-named read-outs stand apart in the source and are kept apart here.

Key:
[1] = tested on: Jurkat E6-1 cell line (ATCC), a human leukemic T cell line or lymphocytes prepared from fresh human blood; assay: Cell viability (mitochondrial enzyme assay, MTT); assay type: cell-based; details: after 16-24 hours incubation
Method: (§1) Jurkat E6-1 cell line (ATCC), a human leukemic T cell line or lymphocytes prepared from fresh human blood, are grown in complete culture medium consisting of RPMI-1640 (Mediatech) supplemented with 10% v/v fetal bovine serum (HyClone, Logen, Vt.), penicillin (100 units/mL), streptomycin ([…]), and 2 mM L-glutamine (GIBCO, Grand Island, N.Y.). The cells are grown to a concentration of between 1.2 to 1.8×10^6 cells/mL before use. The cells are then centrifuged at low speed and resuspended to a concentration of 1.25×10^6 cells/mL in fresh medium.
(§2) The compounds to be tested are dissolved in DMSO, and water is added to make a 50% DMSO/water solution. The compounds are then diluted in sterile water such that the DMSO concentrations are less then 0.05%. The cells at a concentration of 1.25×10^6 cells/mL are stimulated with phytohemagglutinin 10 μg/mL (PHA) and 10^-8 M phorbol ester (12-O-tetradecanoylphorbol 13-acetate: TPA), (Sigma, St. Louis, Mo.). The compounds are then added and the cells are plated in flat-bottom tissue culture plates (Falcon, Lincoln Park, N.J.), with 250,000 cells/well. Plates are then incubated at 37° C. under an atmosphere of 5% CO2.
(§3) After incubation (16-24 hours), the cells are assayed for IL-2 production and cell viability (MTT). IL-2 production is assayed utilizing a solid phase ELISA immunoassay, sold in kit form by R&D Systems, Inc., Minneapolis, Minn.
Cell viability is measured by the use of a mitochondrial enzyme assay. After removal of the supernatant for the IL-2 assay, Cell Titer 96 (a commercial solution of MTT available from Promega, Madison, Wis.) is added to the plates and incubated for 4 hours at 37° C. A solubilization solution is then added and incubated overnight. The plates are then read on an ELISA plate reader at a wavelength of 570 nm. Table II presents the results for the lnterleukin-2 assay, the cell viability assay and the ratio of cell viability/IL-2 inhibition.

[2] = tested on: lymphocyte; details: Yang, et al., 1992 and 1994; cited from earlier work
[3] = tested on: skin allograft rejection; details: Yang, et al., 1992 and 1994; cited from earlier work
[4] = tested on: IL-2; assay: Interleukin-2 assay (IL-2 production, ELISA, PHA/TPA-stimulated cells); assay type: cell-based; details: Jurkat E6-1 cells or human blood lymphocytes, PHA 10 μg/mL + TPA 10^-8 M, 16-24 hours
Method: as §1, §2, §3

[5] = tested on: adjuvant-induced arthritis; assay: Anti-inflammatory activity in the rat model of adjuvant-induced arthritis; assay type: in vivo, rat (male Wistar-Lewis); details: 12 consecutive days, day 18
Method: Anti-inflammatory Activity in the Rat Model of Adjuvant-induced Arthritis
(§4) Following generally the procedure of Pearson and Wood, Arth. Rheum., 2, 44 (1959), the anti-inflammatory activity of the following compounds was determined in a rat model of adjuvant-induced arthritis. Male Wistar-Lewisrats (Mollegaard, Breeding Centre Ltd, BIBY, DK 4623 LI, SKENSVED, P.P. Box 28, DK) with a body weight between 160 g and 200 g are used. Freund's adjuvant (0.1 mL, 6 mg Mycobacterium smegmatis suspension per mL in heavy white paraffin oil, Merck/Darmstadt) was injected into the base of the tail. Between day 10 and day 14 of the test, immunopathological processes lead to chronic inflammation, especially in the form of arthritic and periarthritic symptoms in all parts of the body. The animals received standardized food Altromin-R (Altrogge, Lage) and had free access to water. The compounds were administered i.p. (suspension in a carboxymethyl cellulose solution in an injection volume of 0.5 mL/100 g body weight) on 12 consecutive days, starting with the day of the adjuvant injection. On day 1 and day 18 of the study, the volume to of both hind paws and the body weight were recorded, and in addition on day 18 the arthritis index. Cyclosporin A and Prednisolone were used as standard compounds. In addition, table IV presents the percent change in body weight (weight gain) between day 1 and day 21 of the above test.

[6] = assay type: in vivo, rat (male Wistar-Lewis); details: weight gain between day 1 and day 21
Method: as §4

[7] = administered in conjunction with another immunosuppressive agent; WO 94/26265; cited from earlier work

Compound: CC(C)[C@]12O[C@H]1[C@@H]1O[C@]13[C@]1(O[C@H]1C[C@H]1C4=C(CC[C@@]13C)C(=O)OC4)[C@@H]2O [Triptolide, triptolide]
- IC50 /MTT [1]: 5 ng/mL (≈ 0.0139 µM)
- suppress lymphocyte proliferation [2]: suppress lymphocyte proliferation
- suppress skin allograft rejection [3]: suppress lymphocyte proliferation and skin allograft rejection

Compound: CC(C)[C@]1(O)C=C[C@@]2(O)[C@@]3(C)CCC4=C(COC4=O)C3CC[C@@]2(O)[C@@H]1O (stereo partly drawn) [Example 2, [5aR-(5aα,6α,7β,9aα,9bα)]-3b,4,5,5a,6,7,9a,9b,10,11-decahydro-5a,6,7,9a-tetrahydroxy-9b-methyl-7-(1-methylethyl)-phenanthro[1,2-c]furan-1(3H)-one]
- IC50 /IL-2 [4]: 14 ng/mL
- IC50 /MTT [1]: 90 ng/mL (≈ 0.247 µM)
- % Inhibition ([5]; 2 mg/kg/day i.p.): 83%
- % Inhibition ([5]; 4 mg/kg/day i.p.): 72%
- % Change in Body Weight ([6]; 2 mg/kg/day i.p.): 18.3%
- % Change in Body Weight ([6]; 4 mg/kg/day i.p.): 24.1%

Compound: C[C@@H](CO)[C@]12O[C@H]1[C@@H]1O[C@]13[C@]1(O[C@H]1C[C@H]1C4=C(CC[C@@]13C)C(=O)OC4)[C@@H]2O [16-hydroxytriptolide, 16-Hydroxytriptolide]
- immunosuppressive activity relative to the sum of the effects of either agent alone [7]: increase in immunosuppressive activity relative to the sum of the effects

Compound: [5aS-(5aα,5bα,8β,9α,9aR*,10aβ)]-4,5a,5b,8,9,10a,11,11a-octahydro-5b,8,9-trihydroxy-5a-methyl-8-(1-methylethyl)-1H-oxireno[8a,9]phenanthro[1,2-c]furan-3(5)-one [Example 1]
- IC50 /IL-2 [4]: 1,000 ng/mL
- IC50 /MTT [1]: > 1,000 ng/mL

Compound: Cyclosporin A [reference compound]
- % Inhibition ([5]; 10 mg/kg/day i.p.): 100%
- % Change in Body Weight ([6]; 10 mg/kg/day i.p.): 27.2%

Compound: [5R-(5α,5aβ,6β,7α,9aβ,9bβ)]-3b,4,5,5a,6,7,9a,10,11-decahydro-5a,6,9a-trihydroxy-9b-methyl-7-(1-methylethyl)-5,7-epoxyphenanthro[1,2-c]furan-1(3H)-one [Example 3]
- IC50 /IL-2 [4]: 500 ng/mL
- IC50 /MTT [1]: > 1,000 ng/mL
